Assay results reported in paper PMC3693459 (Nuclear medicine and biology, 2009).

What was measured:
[1] = tested on: aromatase; experiment: PET studies in baboon brain; conditions: for brain penetration / uptake in amygdala and preoptic area (PET images): baboon brain; for brain penetration: at 2.5 min; for uptake in amygdala and preoptic area (PET images): images summed 15-90 min after injection
[2] = Measurement of log D; conditions: 1-octanol / phosphate buffered saline pH 7.4
[3] = Measurement of free fraction in plasma; conditions: baboon plasma, room temperature, 10 min incubation
[4] = for appearance of labeled metabolites in plasma: compared with N-1 (11C-1)
[5] = tested on: aromatase; conditions: cited from earlier work

Row | SMILES | effect of pretreatment on [N-methyl-11C]vorozole (11C-1) accumulation in brain ([1]; baboon, blocking dose 0.1 mg/kg, 5 min prior, all brain regions examined) | brain penetration [1] | uptake in amygdala and preoptic area (PET images) [1] | Log D at pH 7.4 (n=4) [2] | Percent unbound in plasma (n=2) [3] [%] | appearance of labeled metabolites in plasma ([4]; baboon plasma) | area under curve (AUC) in plasma normalized to the injected dose ([4]; baboon, over 90 minutes) | activity of enantiomer at aromatase [5] | disappearance of the parent labeled compound from plasma ([4]; baboon plasma)
1 | N#Cc1ccc(C(c2ccc(C#N)cc2)n2cncn2)cc1 [letrozole, reference compound] | reduced |  |  |  |  |  |  |  | 
2 | [11CH3]n1nnc2cc(C(c3ccc(Cl)cc3)n3cncn3)ccc21 (centres unmarked) [^11C-3] |  | 0.02-0.03 %ID/cc | no specific uptake in amygdala and preoptic area | 2.5 | 8.1 | very rapid appearance of labeled metabolites | similar |  | 
3 | Cn1nnc2ccc([C@@H](c3ccc(Cl)cc3)n3cncn3)cc21 [(R)-vorozole] |  |  |  |  |  |  |  | inactive | 
4 | [11CH3]n1nc2ccc([C@H](c3ccc(Cl)cc3)n3cncn3)cc2n1 [^11C-2] |  | 0.02-0.03 %ID/cc | no specific uptake in amygdala and preoptic area | 2.9 | 4.6 | very rapid appearance of labeled metabolites |  |  | rapid rate of disappearance
